Laboratory results: patent US9877981B2, “NAD biosynthesis and precursors for the treatment and prevention of cancer and proliferation” (President and Fellows of Harvard College, priority 2012, dated 2018)
Entries after “also recorded” stand apart in the source; their conditions may differ.

Key:
[1] = test system: PGC-1α/β KO myotubes; test: qPCR of ETC genes in PGC-1α/β KO myotubes; assay type: cell-based, mouse; parameters: expression of mitochondrially-encoded ETC genes (ND1, CYTB, COX1, ATP6): dose or concentration left out as unconfirmed
Procedure: Primary myoblasts cells were isolated from WT, SIRT1 KO (Price et al., 2012) and PGC-1α/β KO (Zechner et al., 2010) mice as previously described (Price et al., 2012). WT and PGC-1α/β KO primary myoblasts were plated and allowed to differentiate into myotubes by replacing the media with low glucose DMEM supplemented with 2% horse serum (Sigma-Aldrich) for 4 days. After the differentiation the cells were infected with empty vector or flag-SIRT1 adenovirus as described before (Gerhart-Hines et al., 2007). Media was replaced with fresh DMEM supplemented with 2% horse serum (Sigma-Aldrich) for an additional 48 hr and, after that the cells were harvested for the different assays as described. To investigate the role of HIF-1α in genome asynchrony, PGC-1α/β KO primary myotubes were treated for 12 hours with 1 mM DMOG (Sigma) or 10 μM DFO (Sigma), 24 h after infection with empty vector of flag-SIRT1 adenovirus or after 12 h treatment with […] NMN (Sigma).
(§1) RNA from skeletal muscle tissue and C2C12 cells were extracted with RNeasy mini kit (Qiagen) according to the instructions and quantified using the NanoDrop 1000 spectrophotometer (Thermo Scientific). cDNA was synthesized with the iSCRIP cDNA synthesis kit (BioRad) using 600 ng of RNA. Quantitative RT-PCR reactions were performed using 1 μM of primers and LightCycler® 480 SYBR Green Master (Roche) on an LightCycler® 480 detection system (Roche). Calculations were performed by a comparative method (2-ΔCT) using 18S as an internal control. For mtDNA analysis, total DNA was extracted with DNeasy blood and tissue kit (Qiagen). mtDNA was amplified using primers specific for the mitochondrial cytochrome c oxidase subunit 2 (COX2) gene and normalized to genomic DNA by amplification of the ribosomal protein s18 (rps18) nuclear gene. Primers were designed using the IDT software (IDT) and the primer sequences can be found in Table 1.

[2] = test system: HIF-1α; test: Immunoblot for HIF-1α in gastrocnemius of treated mice; assay type: in vivo
Procedure: C57BL/6J mice of 3, 6, 22, 24, or 30 months of age were obtained from the National Institutes of Aging mouse aging colony. Mice were acclimated for at least one-week prior to sacrifice. 3, and 24-month-old mice were given interperitoneal (IP) injections of 500 mg NMN/kg body weight per day or the equivalent volume of PBS for 7 consecutive days at 5:00 pm and 7:00 am on day 8 and sacrificed 4 hr after last injection. All animal studies followed the guidelines of and were approved by the Harvard Institutional Animal Care and Use Committee
C57BL/6J mice of 6, 22, or 30 months of age were obtained from the National Institutes of Aging mouse aging colony. Additionally 22 months old caloric restricted mice were also obtained from the National Institutes of Aging mouse aging colony. EGLN1 KO, SIRT1 KO and SIRT1 OE mice were generated as previously described (Minamishima et al., 2008; Price et al., 2012). Mice were acclimated for at least one-week prior to sacrifice. […]
(§2) Protein extracts from tissue or C2C12 cells were obtained by lysis in ice-cold lysis buffer (150 mM NaCl, 10 mM Tris HCl (pH 7.4), 1 mM EDTA, 1 mM EGTA, 1% Triton X-100, 0.5% NP-40) supplemented with a cocktail of protease and phosphatase inhibitors (Roche). Protein content was determined by the Bradford protein assay (Biorad), and 50 μg proteins were run on SDS-PAGE under reducing conditions. […] The immunostaining was detected using horseradish peroxidase-conjugated anti-rabbit or anti-mouse immunoglobulin for 1 h at room temperature.
as §2, with “tissue” for “tissue or C2C12 cells”

[3] = test system: mitochondrial-encoded genes (ND1, Cytb, COX1 and ATP6); test: qPCR of mitochondrial-encoded genes in gastrocnemius of treated mice; assay type: in vivo
Source text: C57BL/6J mice of 6, 22, or 30 months of age were obtained from the National Institutes of Aging mouse aging colony. Additionally 22 months old caloric restricted mice were also obtained from the National Institutes of Aging mouse aging colony. EGLN1 KO, SIRT1 KO and SIRT1 OE mice were generated as previously described (Minamishima et al., 2008; Price et al., 2012). Mice were acclimated for at least one-week prior to sacrifice. 3, 6, 22 and 24-month-old mice were given interperitoneal (IP) injections of 500 mg NMN/kg body weight per day or the equivalent volume of PBS for 7 consecutive days at 5:00 pm and 7:00 am on day 8 and sacrificed 4 hr after last injection.
Whole body SIRT1 overexpressor (SIRT1-tg) mice of 6 months of age were given interperitoneal (IP) injections of 300 mg DMOG/kg body weight per day or the equivalent volume of PBS for 5 consecutive days.
Whole body adult-inducible Egln1 knockout mice (Minamishima et al, 2007) were treated with IP injection of tamoxifen for 3 days after which they were allowed to rest. The mice were given interperitoneal (IP) injections of 500 mg NMN/kg body weight per day or the equivalent volume of PBS for 7 consecutive days at 5:00 pm and 7:00 am on day 8 and sacrificed 4 hr after last injection. All animal studies followed the guidelines of and were approved by the Harvard Institutional Animal Care and Use Committee.
as §1
RNA from skeletal muscle and aorta were extracted with RNeasy mini kit (Qiagen) according to the instructions and quantified using the NanoDrop 1000 spectrophotometer (Thermo Scientific). cDNA was synthesized with the iSCRIP cDNA synthesis kit (BioRad) using 600 ng of RNA. Quantitative RT-PCR reactions were performed using 1 μM of primers and LightCycler® 480 SYBR Green Master (Roche) on an LightCycler® 480 detection system (Roche). […]

Row | SMILES | effect on NMN-induced expression of mitochondrially-encoded ETC genes ([1]; PGC-1α/β KO myotubes, NMN plus 1 mM DMOG or 10 μM DFO, 12 hours) | effect on NAD (pyruvate) mediated increases in mitochondrial-encoded genes ([1]; PGC-1α/β KO myotubes, pyruvate in presence of DMOG) | expression of mitochondrial-encoded genes compared to vehicle control ([1]; PGC-1α/β knockout myotubes treated with DMOG) | effect on induction of mitochondrial ETC genes by SIRT1 overexpression ([1]; PGC-1α/β knockout myotubes with SIRT1 adenovirus, 1 mM DMOG or 10 μM DFO) | HIF-1α protein ([2]; SIRT1-tg mice, DMOG 300 mg/kg IP per day, 5 days) | increase in expression of mitochondrial-encoded genes observed in SIRT1-tg mice ([3]; SIRT1-tg mice, DMOG 300 mg/kg IP per day, 5 days, gastrocnemius) | expression of mitochondrially-encoded ETC genes (ND1, CYTB, COX1, ATP6) ([1]; PGC-1α/β KO myotubes incubated with NMN (12 h)) | HIF-1α protein in muscle ([2]; 3- and 24-month-old mice, NMN 500 mg/kg IP one week) | HIF-1α protein accumulation ([2]; 6- and 22-month-old mice, NMN one week) | expression of mitochondrial-encoded genes ([3]; 22-month-old mice, NMN one week, gastrocnemius) | mitochondrial-encoded genes in skeletal muscle ([3]; Egln1 KO mice treated with NMN 500 mg/kg IP 7 days, compared to WT controls) | ability of NMN to induce mitochondrially-encoded genes ([3]; SIRT1 KO mice vs WT, NMN or PBS, gastrocnemius)
1 | COC(=O)CNC(=O)C(=O)OC [DMOG, dimethyloxaloylglycine] | completely abolished | inhibited | induced a decline in the expression of mitochondrial-encoded genes | completely blocked | increase HIF-1α | abolished the increase in the expression of mitochondrial-encoded genes | – | – | – | – | – | –
2 | NC(=O)c1ccc[n+]([C@@H]2O[C@H](COP(=O)([O-])O)[C@@H](O)[C@H]2O)c1 [NMN, nicotinamide mononucleotide] | – | – | – | – | – | – | induced expression of mitochondrially-encoded ETC genes | reversed the age-induced increase in HIF-1α in muscle | reversed; also recorded: reduced the level of HIF-1α in muscle | restored | did not restore mitochondrial-encoded genes | lost in animals lacking SIRT1
